Laboratory results published in patent US8278309B2, “Synthetic mimetics of host defense and uses thereof” (priority 2008, dated 2012).
“Also recorded” adds a separate entry of the source. Counter-ions that a name gives are not always drawn.

Key:
Acinetobacter spp. = test: MIC broth microdilution, Gram-negative clinical isolates; type: cell-based; settings: 2-3 isolates/organism
Protocol: Compound A was evaluated in vitro in accordance with defined CLSI documents specific to the organisms (aerobic, anaerobic or yeast) tested in this study. Ampicillin, ceftazidime, cefuroxime, ciprofloxacin, linezolid, and vancomycin were tested alongside as comparator agents for aerobic bacteria; clindamycin and metronidazole were tested as comparators for anaerobes; fluconazole was tested as a comparator for yeast isolates. Stock solutions of Compound A were prepared in dimethyl sulfoxide (DMSO). Ampicillin, ceftazidime, cefuroxime, ciprofloxacin, linezolid, vancomycin, metronidazole, clindamycin, and fluconazole were prepared each according to its manufacturer's guideline.
Minimum inhibitory concentrations (MICs) in μg/ml were determined according to CLSI guideline M7-A7 by broth microdilution. All aerobes were tested using Mueller-Hinton broth medium with the exception of Streptococcus spp., which were tested using cation-adjusted Mueller-Hinton broth supplemented with 2-5% lysed horse blood.

[1] = Hemolysis assay using human erythrocytes; type: cell-based; settings: human, pH 7.4
Protocol: (§1) Pooled whole human blood was centrifuged to separate the red blood cells (RBC). The isolated RBCs were rinsed and diluted in Tris-buffered saline (TBS buffer, pH 7.4) to obtain a 0.22% RBC stock suspension. 5 μL of Compound A stock solution was added to 45 μL of RBC suspension and incubated with shaking for 1 hour at 37° C. At the conclusion of the incubation time, samples were centrifuged and 30 μL of the supernatant was added to 100 μL of water. OD414 measurements were read for hemoglobin concentration. […] EC50 values were determined as described above.

[2] = tested on: human erythrocytes (RBCs); test: Hemolysis assay using human erythrocytes; type: cell-based; settings: vs S. aureus MIC
Protocol: as §1

S. aureus ATCC27660 = test: Time-kill study; type: cell-based
Protocol: Time-kill studies of Compound A versus E. coli ATCC25922, E. coli (lab strain) D31, and S. aureus ATCC27660 were determined in a standard protocol by measuring the time it takes to reduce the initial inoculums 3 log units. Three ml of cation-adjusted Mueller-Hinton medium was inoculated with 20 μL of frozen bacterial stock and incubated at 37° C. on a shaker platform (250 rpm) overnight. […] Compound A stock solution was prepared at 10 mg/mL in DMSO. Time points were collected and viable bacteria were counted on MH Agar plates after an 18 hour incubation. […] See, FIG. 1A and FIG. 1B.

MSSA ATCC 29213 = test: Serial passage resistance, MSSA; type: cell-based, S. aureus; settings: 0.5×MIC, 17 passages
Protocol: Frozen bacterial stocks (20 μL) of S. aureus ATCC29213 or methicillin-resistant S. aureus (MRSA ATCC 33591) were inoculated into 3 mL cation-adjusted Mueller-Hinton medium and incubated at 37° C. on a shaker platform (250 rpm) overnight. The suspension was diluted to approximately 5×10^5 cfu/mL and inoculated into a polypropylene (Costar) 96-well round bottom plate (90 μL volumes). Compound stock solutions of Compound A and norfloxacin (Sigma Aldrich, St. Louis, Mo.; Catalogue# N9890) were prepared in DMSO and serial two-fold dilutions of compound were made in 0.01% acetic acid, 0.2% bovine serum albumin directly in the wells of the polypropylene plate at 10 μL/well. Final concentrations of Compound A were 50, 25, 12.5, 6.25, 3.13, 1.56, 0.78, 0.39, 0.19, 0.098, 0.049, and 0.024 μg/mL. Final concentration ranges of norfloxacin were 100, 50, 25, 12.5, 6.25, 3.13, 1.56, 0.78, 0.39, 0.19, 0.098, and 0.049 μg/mL. […] All samples were performed in triplicate. Following a 24 hour incubation at 37° C., cell growth was assessed by observing the presence of “acceptable growth”, defined by CLSI as a ≧2 mm button or definite turbidity. The MIC wells were defined as the lowest concentration where acceptable growth was not observed. For serial passage, 50 μL aliquots were taken from 2 of 3 replicate wells at 0.5×MIC and combined into 900 μL of fresh cation-adjusted Mueller-Hinton medium. The OD600 was measured and the cell suspensions were inoculated into polypropylene 96-well round bottom plates (90 μL volumes) at approximately 5×10^5 cfu/mL. Ten μL of compound stock solutions were added previously to the wells to achieve the concentration ranges for each compound described above. All samples were performed in triplicate. The plates were incubated for 24 hours at 37° C. This process was repeated for a total of 17 passages and MIC values were recorded at each passage.

[3] = In vitro metabolic stability, blood plasma (data not shown); type: in vitro ADME
Protocol: Pooled plasma samples from human (mixed gender), rat (mixed breed and gender) and dog (mixed breed and gender) were incubated with Compound A (5 μM) at 37° C. for 0 and 60 minutes (duplicate samples). Incubations were terminated by addition of ice-cold precipitation solvent (acetonitrile:glacial acetic acid, 9:1 v/v). Supernatants were diluted with equal volume of 0.1% formic acid and analyzed by HPLC-MS/MS. Plasma stability is reported as % parent compound at 60 minutes relative to amount of parent at 0 minutes.

S. aureus (ATCC 13709) [4] = test: Mouse thigh burden model; type: in vivo; settings: for bacterial reduction vs inoculated control group: thighs at 25 hours
Protocol: Female 6-7-week old CD-1 mice were made neutropenic with cyclophosphamide (150 mg/kg, i.p.) on days 4 and 1 before i.m. inoculation with S. aureus (ATCC 13709). S. aureus inoculum was prepared by transferring colonies from 18-20-hour tryptic soy agar (TSA) cultures to sterile PBS. The density was adjusted to approximately 10^6 cfu/mL with the aid of a spectrophotometer, and the inoculum concentration was determined by the dilution plate count method. Mice were inoculated by injecting each posterior thigh with 0.1 mL of inoculum. Compound A was given to separate groups of mice (4 females/group) by i.v. bolus doses of 1 or 2 mg/kg/dose at 1 and 5, 1 and 9, or 1 and 13 hours post inoculation as shown in Table 5. A separate control group of 4 mice received the inoculum without antibiotic treatment. Compound A was dissolved 50%/50% v/v sterile USP purified water/PBS. Thighs were harvested at 25 hours after inoculation. Thigh muscle and bone tissue were homogenized, aliquots of serial dilutions were plated on TSA and incubated at 37° C. for 20 hours, and colony counts were obtained to calculate cfu/thigh.

S. aureus (ATCC 13709) [5] = test: Mouse sepsis model, S. aureus infection; type: in vivo; settings: for protection from mortality: 1 & 7 hr after inoculation, observed 6 days
Protocol: Sterile saline, vancomycin, or Compound A were administered to separate groups of 8-week old female CD-1 mice (8 mice/group) 1 and 7 hours after i.p. injections of S. aureus (ATCC 13709, 5×10^7 cfu/mL in 5% mucin, 0.5 mL/mouse). Compound A was dissolved in 50%/50% v/v sterile USP purified water/TBS. A suspension of S. aureus was prepared from colonies transferred from the TSA plate to sterile PBS. An aliquot of the stock suspension was added to 5% mucin for a final concentration of about 5×10^7 cfu/mL.

in vivo = settings: mouse, iv
Protocol: Maximum tolerated dose (MTD) determinations were made in ascending/descending dose studies in mice and rats. Compound A was administered by either i.v. bolus injection in the tail vein of mice and rats or by i.v. infusion via catheter in the femoral vein of rats. At each dose, two to three animals were administered compound and clinical signs were recorded over a 4 to 7 day period. Gross necropsy was performed at the conclusion of the study.

N=C(N)NCCCCC(=O)Nc1cc(C(F)(F)F)cc(NC(=O)c2cc(C(=O)Nc3cc(C(F)(F)F)cc(NC(=O)CCCCNC(=N)N)c3O[C@H]3CCNC3)ncn2)c1O[C@H]1CCNC1 [Compound A, pyrimidine-4,6-dicarboxylic acid bis-{[3-(5-guanidino-pentanoylamino)-2-((R)-pyrrolidin-3-yloxy)-5-trifluoromethyl-phenyl]-amide}tetrahydrochloride]
MIC (Acinetobacter spp.): 4 µg/mL
EC50 at 1 h [1]: > 500 µg/mL
Selectivity (EC50/MIC) RBCs [2]: >500
time to reduction of 3 log10 units in the initial inoculum (S. aureus ATCC27660; 2×MIC): 5 hours
MIC (S. aureus ATCC27660; Staphylococcus aureus, ATCC27660, MIC used in time-kill study): 1 µg/mL
re-growth in the cultures (S. aureus ATCC27660; over 72 hours at 1×MIC): No re-growth
change in MIC values on serial passage (MSSA ATCC 29213): did not result in any change; also recorded: no change
loss of compound in plasma ([3]; cynomolgus monkeys): little to no loss
loss of compound in plasma ([3]; rabbits): little to no loss
bacterial reduction vs inoculated control group (S. aureus (ATCC 13709) [4]; 2 mg/kg/dose i.v. bolus at 1 and 5 hours after inoculation): 3.96 logs
bacterial reduction vs inoculated control group (S. aureus (ATCC 13709) [4]; 2 mg/kg/dose i.v. bolus at 1 and 9 hours after inoculation): 3.93 logs
static efficacy dose in the thigh burden model (S. aureus (ATCC 13709) [4]; mouse): 2 to 4 mg/kg
protection from mortality (S. aureus (ATCC 13709) [5]; 2×5 mg/kg i.v.): full protection
protection from mortality (S. aureus (ATCC 13709) [5]; 2×10 mg/kg i.v.): full protection
efficacy relative to vancomycin treatment group (S. aureus (ATCC 13709) [5]; 3, 5, 10 mg/kg/dose i.v.): comparable to the vancomycin treatment group
MTD (in vivo): 30 mg/kg
